Laboratory results reported in ChEMBL document CHEMBL4823254, “Tetrahydroquinoline-Capped Histone Deacetylase 6 Inhibitor SW-101 Ameliorates Pathological Phenotypes in a Charcot-Marie-Tooth Type 2A Mouse Model” (J Med Chem, 2021).

Assays:
[1] = target: T1, Protein deacetylase HDAC6 (Mus musculus) (UniProt Q9Z2V5); experiment: Inhibition of HDAC6 in mouse Neuro2a cells assessed as fold increase in ratio of acetylated alpha-tubulin to alpha tubulin at 0.01 uM incubated for overnight by Western blot analysis; assay type: cell-based; conditions: time 12.0 hrs
T1 sequence (whole entry): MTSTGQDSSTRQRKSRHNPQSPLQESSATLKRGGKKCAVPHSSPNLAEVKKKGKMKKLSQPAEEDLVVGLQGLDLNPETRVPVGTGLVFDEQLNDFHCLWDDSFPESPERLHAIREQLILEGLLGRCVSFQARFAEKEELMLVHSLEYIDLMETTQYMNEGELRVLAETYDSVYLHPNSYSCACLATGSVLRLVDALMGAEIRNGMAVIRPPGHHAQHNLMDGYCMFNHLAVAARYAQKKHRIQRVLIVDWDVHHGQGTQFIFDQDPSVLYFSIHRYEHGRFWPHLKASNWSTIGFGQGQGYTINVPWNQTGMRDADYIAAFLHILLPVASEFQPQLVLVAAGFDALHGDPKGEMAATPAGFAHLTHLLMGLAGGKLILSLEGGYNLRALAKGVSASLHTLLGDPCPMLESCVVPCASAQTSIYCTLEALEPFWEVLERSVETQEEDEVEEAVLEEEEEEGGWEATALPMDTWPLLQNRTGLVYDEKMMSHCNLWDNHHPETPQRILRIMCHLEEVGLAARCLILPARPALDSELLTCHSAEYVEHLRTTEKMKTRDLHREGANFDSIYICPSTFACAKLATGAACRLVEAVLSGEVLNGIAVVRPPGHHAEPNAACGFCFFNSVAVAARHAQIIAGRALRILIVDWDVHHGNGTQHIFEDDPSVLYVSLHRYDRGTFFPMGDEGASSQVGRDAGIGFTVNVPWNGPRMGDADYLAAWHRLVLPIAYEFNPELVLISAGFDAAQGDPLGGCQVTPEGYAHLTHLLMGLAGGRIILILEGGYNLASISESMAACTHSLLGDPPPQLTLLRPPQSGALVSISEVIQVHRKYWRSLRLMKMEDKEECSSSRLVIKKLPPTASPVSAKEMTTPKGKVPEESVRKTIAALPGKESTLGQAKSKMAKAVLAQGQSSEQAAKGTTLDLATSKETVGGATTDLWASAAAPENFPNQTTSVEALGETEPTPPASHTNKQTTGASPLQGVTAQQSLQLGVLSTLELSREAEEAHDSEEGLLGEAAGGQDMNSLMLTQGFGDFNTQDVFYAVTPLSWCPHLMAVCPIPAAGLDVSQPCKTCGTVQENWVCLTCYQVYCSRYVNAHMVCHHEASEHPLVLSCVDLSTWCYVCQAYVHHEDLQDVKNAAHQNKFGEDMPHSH

[2] = target: T2, Protein deacetylase HDAC6 (Homo sapiens, UniProt Q9UBN7)
T2 sequence (Q9UBN7 whole entry): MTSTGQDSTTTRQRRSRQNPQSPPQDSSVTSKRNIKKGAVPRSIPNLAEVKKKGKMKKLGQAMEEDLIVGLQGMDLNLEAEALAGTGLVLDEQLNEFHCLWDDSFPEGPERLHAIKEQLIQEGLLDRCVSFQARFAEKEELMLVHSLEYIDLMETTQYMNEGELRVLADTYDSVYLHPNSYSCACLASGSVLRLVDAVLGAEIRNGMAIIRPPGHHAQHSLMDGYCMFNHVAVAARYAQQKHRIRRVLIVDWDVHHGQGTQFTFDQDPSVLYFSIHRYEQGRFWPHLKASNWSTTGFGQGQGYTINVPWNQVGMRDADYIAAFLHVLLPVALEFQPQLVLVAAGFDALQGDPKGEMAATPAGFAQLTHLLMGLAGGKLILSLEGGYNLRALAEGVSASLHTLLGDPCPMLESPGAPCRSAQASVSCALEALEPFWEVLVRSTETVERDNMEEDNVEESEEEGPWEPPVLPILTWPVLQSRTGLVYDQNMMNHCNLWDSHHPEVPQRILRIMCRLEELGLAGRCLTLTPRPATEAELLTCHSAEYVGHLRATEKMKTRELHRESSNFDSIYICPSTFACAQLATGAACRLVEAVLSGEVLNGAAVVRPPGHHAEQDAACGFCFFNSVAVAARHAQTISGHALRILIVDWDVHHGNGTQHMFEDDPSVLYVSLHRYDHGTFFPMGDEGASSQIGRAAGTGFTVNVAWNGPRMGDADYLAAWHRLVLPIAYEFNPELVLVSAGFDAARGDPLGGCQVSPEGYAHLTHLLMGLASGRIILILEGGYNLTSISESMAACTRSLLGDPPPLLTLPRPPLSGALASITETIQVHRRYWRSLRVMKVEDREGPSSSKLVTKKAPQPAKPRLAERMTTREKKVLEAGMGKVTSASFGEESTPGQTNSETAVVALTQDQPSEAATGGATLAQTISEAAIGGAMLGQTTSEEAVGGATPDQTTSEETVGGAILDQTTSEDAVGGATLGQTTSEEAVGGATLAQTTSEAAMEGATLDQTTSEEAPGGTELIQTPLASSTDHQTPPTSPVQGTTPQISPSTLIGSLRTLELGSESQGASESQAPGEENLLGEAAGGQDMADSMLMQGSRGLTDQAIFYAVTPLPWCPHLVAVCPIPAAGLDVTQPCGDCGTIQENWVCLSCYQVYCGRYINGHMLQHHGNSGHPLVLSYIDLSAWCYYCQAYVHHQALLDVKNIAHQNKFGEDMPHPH
Description: Inhibition of recombinant human HDAC6 using Ac-GAK(Ac)-AMC as substrate preincubated for 10 mins followed by substrate addition and measured after 30 mins by fluorescence-based assay

[3] = Half life in human pooled liver microsomes assessed as parent compound remaining measured up to 60 mins in presence of NADPH by LC-MS/MS analysis; assay type: ADME, Microsome; conditions: pooled liver microsomes
Histone deacetylase 8 = target: T3, Histone deacetylase 8 (Homo sapiens, UniProt Q9BY41)
T3 sequence (Q9BY41 whole entry): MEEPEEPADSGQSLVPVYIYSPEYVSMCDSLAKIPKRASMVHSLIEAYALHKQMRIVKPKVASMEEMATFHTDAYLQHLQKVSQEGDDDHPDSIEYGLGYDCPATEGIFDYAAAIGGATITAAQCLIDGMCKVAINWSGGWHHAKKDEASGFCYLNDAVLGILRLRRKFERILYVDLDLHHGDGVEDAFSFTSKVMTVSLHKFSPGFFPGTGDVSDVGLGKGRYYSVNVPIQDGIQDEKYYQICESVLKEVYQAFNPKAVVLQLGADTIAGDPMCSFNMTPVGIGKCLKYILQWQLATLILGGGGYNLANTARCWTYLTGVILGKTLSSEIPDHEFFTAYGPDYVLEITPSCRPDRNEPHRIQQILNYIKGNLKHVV
Description: Inhibition of recombinant human HDAC8 using Boc-Lys(TFA)-AMC as substrate preincubated for 10 mins followed by substrate addition and measured after 30 mins by fluorescence-based assay

Histone deacetylase 1 [4] = target: T4, Histone deacetylase 1 (Homo sapiens, UniProt Q13547)
Target sequence in this assay (Q13547 whole entry): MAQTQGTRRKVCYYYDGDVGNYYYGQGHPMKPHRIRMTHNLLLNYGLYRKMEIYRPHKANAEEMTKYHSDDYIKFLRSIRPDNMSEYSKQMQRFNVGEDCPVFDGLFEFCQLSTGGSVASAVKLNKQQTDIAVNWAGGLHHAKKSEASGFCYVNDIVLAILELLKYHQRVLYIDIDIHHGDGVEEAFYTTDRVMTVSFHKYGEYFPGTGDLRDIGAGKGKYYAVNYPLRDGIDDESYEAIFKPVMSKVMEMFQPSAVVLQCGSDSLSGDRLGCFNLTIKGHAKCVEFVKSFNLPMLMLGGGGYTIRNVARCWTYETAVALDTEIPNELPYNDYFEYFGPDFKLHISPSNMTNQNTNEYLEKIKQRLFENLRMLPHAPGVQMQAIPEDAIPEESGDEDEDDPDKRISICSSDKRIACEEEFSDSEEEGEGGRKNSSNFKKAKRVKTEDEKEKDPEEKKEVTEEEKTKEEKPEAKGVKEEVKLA
Description: Inhibition of recombinant human HDAC1 using Ac-GAK(Ac)-AMC as substrate preincubated for 10 mins followed by substrate addition and measured after 30 mins by fluorescence-based assay

[5] = Stability in human pooled liver microsomes assessed as parent compound remaining measured at 60 mins in presence of NADPH by LC-MS/MS analysis; assay type: ADME, Microsome; conditions: pooled liver microsomes, read-out: Stabilty
[6] = Stability in CD1 mouse pooled liver microsomes assessed as parent compound remaining measured at 60 mins in presence of NADPH by LC-MS/MS analysis; assay type: ADME, Microsome; conditions: for remaining at 1 h: CD1, mouse, pooled liver microsomes, read-out: Stabilty
[7] = target: T1, Protein deacetylase HDAC6 (Mus musculus); experiment: Inhibition of HDAC6 in mouse Neuro2a cells assessed as fold increase in ratio of acetylated alpha-tubulin to alpha tubulin at 1 uM incubated for overnight by Western blot analysis; assay type: cell-based; conditions: time 12.0 hrs
[8] = Half life in CD1 mouse pooled liver microsomes assessed as parent compound remaining measured up to 60 mins in presence of NADPH by LC-MS/MS analysis; assay type: ADME, Microsome; conditions: for half-life: CD1, mouse, pooled liver microsomes
[9] = target: Protein deacetylase HDAC6, Homo sapiens (UniProt Q9UBN7); experiment: biochemical
Histone deacetylase 1 [10] = target: T4, Histone deacetylase 1; experiment: biochemical
Target sequence in this assay (Q13547 whole entry, looked up): as the sequence (Q13547 whole entry) above

| Structure (SMILES) | fold change (FC) [1] | IC50 [2] | half-life [3] | IC50 (Histone deacetylase 8) | IC50 (Histone deacetylase 1 [4]) | remaining at 1 h [5] | remaining at 1 h [6] | fold change (FC) [7] | half-life [8] | IC50 [9] | IC50 (Histone deacetylase 1 [10]) | Ratio IC50 (Homo sapiens) | Stabilty ([6]; mouse, microsomes, 1 h) | t1/2 ([8]; mouse, microsomes, 1 h) |
| --- | --- | --- | --- | --- | --- | --- | --- | --- | --- | --- | --- | --- | --- | --- |
| O=C(NO)c1ccc(CN2C(=O)CCCc3cc(Cl)ccc32)cc1 | 2.81 | 0.8 nM | 12 h | 1170 nM | 126 nM | 95.3% | 68.1% | 1.73 | 1.83 h | – | – | – | – | – |
| N#Cc1ccc2c(c1)CCCN2Cc1ccc(C(=O)NO)cc1 | – | 1.3 nM | – | 1490 nM | 141 nM | – | – | – | – | – | – | – | – | – |
| O=C(NO)c1ccc(CN2CCCc3cc(-c4cc[nH]n4)ccc32)cc1 | 2.65 | 0.3 nM | – | 792 nM | 184 nM | – | – | 2.14 | – | – | – | – | – | – |
| O=C(NO)c1ccc(CN2C(=O)CCc3cc(Br)ccc32)cc1 | – | 0.9 nM | – | 743 nM | 107 nM | – | – | – | – | – | – | – | – | – |
| O=C(NO)c1ccc(CN2CCCc3cc(Cl)ccc32)c(F)c1 | 1.21 | – | – | – | – | – | 17.2% | 1.38 | 0.413 h | 12.4 nM | 21200 nM | 1710 | – | – |
| O=C(NO)c1ccc(CN2CCCCc3ccccc32)cc1 | 0.98 | 5 nM | 4.03 h | 5610 nM | 1320 nM | 83.9% | 34.7% | 0.78 | 0.66 h | – | – | – | – | – |
| O=C(NO)c1ccc(CN2CCCc3cc(Cl)c(Cl)cc32)cc1 | 1.38 | – | – | – | – | – | – | 1.54 | – | 3.6 nM | 2620 nM | 728 | – | – |
| O=C(NO)c1ccc(CN2CCCc3cc(Cl)c(F)cc32)cc1 | 1.16 | – | – | – | – | – | 19.1% | 1.5 | 0.428 h | 4.8 nM | 3220 nM | 670 | – | – |
| CCCc1ccc2c(c1)CCC(=O)N2Cc1ccc(C(=O)NO)cc1 | – | 12 nM | – | 2680 nM | 306 nM | – | – | – | – | – | – | – | – | – |
| O=C(NO)c1ccc(CN2C(=O)CCc3cc(Cl)ccc32)cc1 | 0.93 | 2.9 nM | 9.62 h | 2080 nM | 276 nM | 92.6% | – | 1.51 | – | – | – | – | 77.7% | 29.05 h |
| CC1(C)CCc2cc(Cl)ccc2N1Cc1ccc(C(=O)NO)cc1 | – | – | – | – | – | – | 20.3% | – | 0.423 h | 328 nM | 19600 nM | 60 | – | – |
| O=C(NO)c1ccc(CN2CCCc3cc(F)c(Cl)cc32)cc1 | 1.14 | – | – | – | – | – | – | 1.53 | – | 3.4 nM | 1870 nM | 550 | – | – |
| O=C(NO)c1ccc(CN2CCCCc3cc(-c4cc[nH]n4)ccc32)cc1 | 0.95 | 17 nM | 0.37 h | 2820 nM | 1080 nM | 15% | 10.1% | 1.78 | 0.305 h | – | – | – | – | – |
| O=C(NO)c1ccc(CN2CCCCc3cc(Br)ccc32)cc1 | – | 9 nM | – | 4360 nM | 1590 nM | – | – | – | – | – | – | – | – | – |
| NC(=O)c1ccc2c(c1)CCCCN2Cc1ccc(C(=O)NO)cc1 | 2.4 | 2.4 nM | – | 1060 nM | 150 nM | – | – | 1.19 | – | – | – | – | – | – |
| O=C(NO)c1ccc(CN2CCCCc3cc(Cl)ccc32)cc1 | 0.89 | 1 nM | 35.5 h | 8640 nM | 1900 nM | 83.9% | 34.7% | 0.55 | 1.01 h | – | – | – | – | – |
| CC1(C)CCN(Cc2ccc(C(=O)NO)cc2)c2ccc(Cl)cc21 | – | – | – | – | – | – | 6.8% | – | 0.265 h | 37.8 nM | 19600 nM | 519 | – | – |
| CC1(C)CCN(Cc2ccc(C(=O)NO)cc2)c2ccc(F)cc21 | – | – | – | – | – | – | – | – | – | 45.1 nM | 21100 nM | 468 | – | – |
| CN1CCc2c(c3ccccc3n2Cc2ccc(C(=O)NO)cc2)C1 | 0.91 | – | – | – | – | – | – | 1.11 | – | – | – | – | – | – |
| O=C(NO)c1ccc(CN2C(=O)CCc3cc(C4CC4)ccc32)cc1 | – | 2.7 nM | – | 1500 nM | 117 nM | – | – | – | – | – | – | – | – | – |
| O=C(NO)c1ccc(C(=O)N2CCCc3cc(Cl)ccc32)cc1 | – | – | – | – | – | – | – | – | – | 961 nM | 10500 nM | 11 | – | – |
| N#Cc1ccc2c(c1)CCCCN2Cc1ccc(C(=O)NO)cc1 | – | 4.6 nM | 4.21 h | 2220 nM | 248 nM | 84.9% | 80.8% | 0.98 | 3.26 h | – | – | – | – | – |
| CC1(C)CCc2cc(F)ccc2N1Cc1ccc(C(=O)NO)cc1 | – | – | – | – | – | – | – | – | – | 161 nM | 14100 nM | 88 | – | – |
| CC(c1ccc(C(=O)NO)cc1)N1CCCc2cc(Cl)ccc21 (stereo unspecified) | – | – | – | – | – | – | – | – | – | 383 nM | 8430 nM | 22 | – | – |
